Results on five compounds are retold here after patent US20110243854A1, “Methods and systems for identifying modulators of longevity” (The Regents of the University of California, priority 2007, published 2011).

Experiment [1] concerns flies with reduced life span due to Cu/ZnSOD and MnSOD deficiency. The settings on record: Cu/ZnSOD and MnSOD deficient flies; cited from earlier work.
Experiment [2] has as its system wild-type flies. The settings on record: cited from earlier work.
The subject of experiment [3] is NF1^P1/P2 mutants. Put plainly: Locomotive (up-climbing) recovery after heat stress, antioxidant-fed NF1 mutants. The following applies: 20 min 37° C. heat stress. The experiment is classed as in vivo, Drosophila melanogaster. On the procedure: Locomotive assays were performed on 3- to 4-d-old flies. Flies were placed in 90 mm×20 mm vertical tubes containing a small quantity of cornmeal food at the bottom with a line drawn horizontally 10 mm from the base. Every 5 min, the vials were tapped until the flies were at the bottom of the vials. Then, flies were given 15 s to climb (up-climbing behavior) toward the top of the vial, and the numbers of flies above the 10 mm line were recorded. The locomotive index is the percentage of flies that climbed up after 15 s. After 30 min of baseline recording at 22° C., flies were subjected to a brief 20-min heat treatment at 37° C. and were then returned to 22° C. for recovery. The locomotive index was then plotted against time over the course of the experiment to determine the recovery time (τ).
(§1) MnTBAP (Oxis) and MnTDEIP (Aeolus Pharmaceuticals) were dissolved in PBS (Mediatech) before further dilution with cornmeal food to make desired concentration. Red food dye (six drops per 500 ml food) was added to the food to ensure homogeneity.

Experiment [4] concerns NF1^P1/P2 flies. The experiment is described as follows: Longevity assay, NF1 mutant flies fed catalytic antioxidants. The class given is in vivo, Drosophila melanogaster. The settings on record: for increase in survivorship: NF1^P1/P2 flies fed the antioxidant; for effect on life span of NF1 mutant flies (in words): feeding 10 μM, NF1^P1/P2 males and females. On the procedure:
Life spans were determined at 25° C. and 50% humidity with a 12-h light/dark cycle. Male and female flies were collected under brief CO2 anesthesia 2 to 3 d after eclosion, allowing time for mating. The number of deceased flies was recorded every 2 to 3 d, when flies were transferred to fresh cornmeal agar medium. Both Statview 5.0 and Prism GraphPad software were used for survival data and mortality curves analysis. Survival data were analyzed by Kaplan-Meier analysis in Statview 5.0. The log-rank (Mantel-Cox) test results are presented. Censored data were recorded and analyzed with GraphPad software.
as §1

Experiment [5] concerns mitochondrial ROS production. The following applies: cited from earlier work.
Experiment [6] concerns w^1118 flies. The experiment is described as follows: Longevity assay, w^1118 flies fed cAMP analogs. The experiment is classed as in vivo, Drosophila melanogaster. On the procedure: Male and female flies were collected under brief CO2 anesthesia 2 to 3 d after eclosion, allowing time for mating. The number of deceased flies was recorded every 2 to 3 d, when flies were transferred to fresh cornmeal agar medium. Both Statview 5.0 and Prism GraphPad software were used for survival data and mortality curves analysis. Survival data were analyzed by Kaplan-Meier analysis in Statview 5.0. The log-rank (Mantel-Cox) test results are presented. […] The stock solutions were subsequently diluted into food to make the specific concentrations of 1 μM and 10 μM. Red food dye (six drops per 500 ml food) was added to the supplemented food to insure homogeneity.

“Also recorded” adds a separate entry of the source.

In the case of `[Cl-].[Mn+3].[O-]c1ccccc1C=NCCN=Cc1ccccc1[O-]` [EUK-8, manganese N,N′-bis(salicyidene) ethylenediamine chloride], the “effect on life span (in words)” value in experiment [1] is “partially restored normal life span”; in experiment [2] it was “shortened their life spans”.
With `COC1=C(OC)C(=O)C(CCCCCCCCCC[P+](c2ccccc2)(c2ccccc2)c2ccccc2)=C(C)C1=O` [MitoQ], the “effect on life span (in words)” value in experiment [1] is “partially restored normal life span”; in experiment [2], “shortened their life spans”.
Consider `O=C(O)c1ccc(-c2c3nc(c(-c4ccc(C(=O)O)cc4)c4ccc([n-]4)c(-c4ccc(C(=O)O)cc4)c4nc(c(-c5ccc(C(=O)O)cc5)c5ccc2[n-]5)C=C4)C=C3)cc1.[Mn+3]` [MnTBAP, Mn(III)tetrakis(4-benzoic acid) porphyrin], for which, in experiment [3], the “recovery of locomotive performance after heat stress (in words)” value was “enhanced the recovery rate of locomotive performance; also recorded: rescued delayed heat stress recovery time”. Further, in experiment [4], the increase in survivorship result was “approximately 50%” and the “effect on life span of NF1 mutant flies (in words)” value was “restores normal life span; also recorded: extended”. For the same compound, the “mitochondrial ROS production and oxidative damage (in words)” value in experiment [5] is “reduce mitochondrial ROS production and oxidative damage”.
Regarding `CCCC(=O)Nc1ncnc2c1ncn2[C@@H]1O[C@@H]2COP(=O)(O)O[C@H]2[C@H]1OC(=O)CCC` [db-cAMP, dibutyryl-cAMP], the “increase in median life span” value in experiment [6] (adult males fed 1 μM or 10 μM) stood at 30%. Moreover, the “increase in life span” value is 60% in experiment [6] (females fed 1 μM) and over 100% in experiment [6] (females fed 10 μM). In addition, in experiment [6] (male and female w^1118 flies, 1 μM and 10 μM in food), the “effect on life span of w^1118 flies (in words)” value is recorded as “extends life spans”.
In the case of “tetrakis(1,3-diethyl imidazolium-2-yl) meso-substituted manganoporphyrin [MnTDEIP]”, the “recovery of locomotive performance after heat stress (in words)” value in experiment [3] was “enhanced the recovery rate of locomotive performance; also recorded: rescued delayed heat stress recovery time”. Moreover, in experiment [4], the increase in survivorship result is given as “approximately 50%” and the “effect on life span of NF1 mutant flies (in words)” value is “extended”.
